In PMC10504751, “Chalcone/1,3,4-Oxadiazole/Benzimidazole hybrids as novel anti-proliferative agents inducing apoptosis and inhibiting EGFR & BRAFV^600E” (BMC Chemistry, 2023):

Experiments:
[1] = system: A498; assay: NCI one-dose SRB anti-proliferative screen; type: cell-based; conditions: Homo sapiens; A498 (Renal Cancer), NCI one dose 10 µM; read-out: Cell growth inhibition %
How it was run: (§1)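 Compounds were tested at a single 10 µM concentration within a 60-cell-line panel covering nine tumour subpanels. Growth was read colorimetrically by sulforhodamine B staining.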

[2] = system: BT-549; assay: NCI one-dose SRB anti-proliferative screen; type: cell-based; conditions: Homo sapiens; BT-549 (Breast Cancer), NCI one dose 10 µM; read-out: Cell growth inhibition %
How it was run: as §1

[3] = system: HCT-15; assay: NCI one-dose SRB anti-proliferative screen; type: cell-based; conditions: Homo sapiens; HCT-15 (Colon Cancer), NCI one dose 10 µM; read-out: Cell growth inhibition %
How it was run: as §1

[4] = system: HL-60(TB); assay: NCI one-dose SRB anti-proliferative screen; type: cell-based; conditions: Homo sapiens; HL-60(TB) (Leukemia), NCI one dose 10 µM; read-out: Cell growth inhibition %
How it was run: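 Activity reflects a single-point exposure at 10 µM, with cell mass determined by a sulforhodamine B dye assay.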

[5] = system: HOP-62; assay: NCI one-dose SRB anti-proliferative screen; type: cell-based; conditions: Homo sapiens; HOP-62 (Non-Small Cell Lung Cancer), NCI one dose 10 µM; read-out: Cell growth inhibition %
How it was run: as §1

[6] = system: HOP-92; assay: NCI one-dose SRB anti-proliferative screen; type: cell-based; conditions: Homo sapiens; HOP-92 (Non-Small Cell Lung Cancer), NCI one dose 10 µM; read-out: Cell growth inhibition %
How it was run: as §1

[7] = system: HT29; assay: NCI one-dose SRB anti-proliferative screen; type: cell-based; conditions: Homo sapiens, HT-29; HT29 (Colon Cancer), NCI one dose 10 µM; read-out: Cell growth inhibition %
How it was run: as §1

[8] = system: M14; assay: NCI one-dose SRB anti-proliferative screen; type: cell-based; conditions: Homo sapiens; M14 (Melanoma), NCI one dose 10 µM; read-out: Cell growth inhibition %
How it was run: as §1

[9] = system: MDA-MB-231/ATCC; assay: NCI one-dose SRB anti-proliferative screen; type: cell-based; conditions: Homo sapiens; MDA-MB-231/ATCC (Breast Cancer), NCI one dose 10 µM; read-out: Cell growth inhibition %
How it was run: as §1

[10] = system: MDA-MB-435; assay: NCI one-dose SRB anti-proliferative screen; type: cell-based; conditions: Homo sapiens; MDA-MB-435 (Melanoma), NCI one dose 10 µM; read-out: Cell growth inhibition %
How it was run: as §1

[11] = system: NCI-H322M; assay: NCI one-dose SRB anti-proliferative screen; type: cell-based; conditions: Homo sapiens; NCI-H322M (Non-Small Cell Lung Cancer), NCI one dose 10 µM; read-out: Cell growth inhibition %
How it was run: as §1

[12] = system: NCI-H460; assay: NCI one-dose SRB anti-proliferative screen; type: cell-based; conditions: Homo sapiens; NCI-H460 (Non-Small Cell Lung Cancer), NCI one dose 10 µM; read-out: Cell growth inhibition %
How it was run: as §1

[13] = system: NCI/ADR-RES; assay: NCI one-dose SRB anti-proliferative screen; type: cell-based; conditions: Homo sapiens; NCI/ADR-RES (Ovarian Cancer), NCI one dose 10 µM; read-out: Cell growth inhibition %
How it was run: as §1

[14] = system: OVCAR-4; assay: NCI one-dose SRB anti-proliferative screen; type: cell-based; conditions: Homo sapiens; OVCAR-4 (Ovarian Cancer), NCI one dose 10 µM; read-out: Cell growth inhibition %
How it was run: as §1

[15] = system: OVCAR-5; assay: NCI one-dose SRB anti-proliferative screen; type: cell-based; conditions: Homo sapiens; OVCAR-5 (Ovarian Cancer), NCI one dose 10 µM; read-out: Cell growth inhibition %
How it was run: as §1

[16] = system: OVCAR-8; assay: NCI one-dose SRB anti-proliferative screen; type: cell-based; conditions: Homo sapiens; OVCAR-8 (Ovarian Cancer), NCI one dose 10 µM; read-out: Cell growth inhibition %
How it was run: as §1

[17] = system: SF-539; assay: NCI one-dose SRB anti-proliferative screen; type: cell-based; conditions: Homo sapiens; SF-539 (CNS Cancer), NCI one dose 10 µM; read-out: Cell growth inhibition %
How it was run: as §1

[18] = system: SK-MEL-2; assay: NCI one-dose SRB anti-proliferative screen; type: cell-based; conditions: Homo sapiens; SK-MEL-2 (Melanoma), NCI one dose 10 µM; read-out: Cell growth inhibition %
How it was run: as §1

[19] = system: SNB-19; assay: NCI one-dose SRB anti-proliferative screen; type: cell-based; conditions: Homo sapiens; SNB-19 (CNS Cancer), NCI one dose 10 µM; read-out: Cell growth inhibition %
How it was run: as §1

[20] = system: SR; assay: NCI one-dose SRB anti-proliferative screen; type: cell-based; conditions: Homo sapiens; SR (Leukemia), NCI one dose 10 µM; read-out: Cell growth inhibition %
How it was run: as §1

[21] = system: SW-620; assay: NCI one-dose SRB anti-proliferative screen; type: cell-based; conditions: Homo sapiens; SW-620 (Colon Cancer), NCI one dose 10 µM; read-out: Cell growth inhibition %
How it was run: as §1

[22] = system: TK-10; assay: NCI one-dose SRB anti-proliferative screen; type: cell-based; conditions: Homo sapiens; TK-10 (Renal Cancer), NCI one dose 10 µM; read-out: Cell growth inhibition %
How it was run: as §1

[23] = system: U251; assay: NCI one-dose SRB anti-proliferative screen; type: cell-based; conditions: Homo sapiens, U-251; U251 (CNS Cancer), NCI one dose 10 µM; read-out: Cell growth inhibition %
How it was run: as §1

[24] = system: UO-31; assay: NCI one-dose SRB anti-proliferative screen; type: cell-based; conditions: Homo sapiens; UO-31 (Renal Cancer), NCI one dose 10 µM; read-out: Cell growth inhibition %
How it was run: as §1

Question: For `COc1ccc(-c2nc3cc(-c4nnc(SCC(=O)Nc5ccc(C(=O)/C=C/c6ccccc6)cc5)o4)ccc3[nH]2)cc1OC` [Compound 7p, 2-{5-[2-(3,4-Dimethoxyphenyl)-1 H-benzo[d]imidazol-5-yl]-1,3,4-oxadiazol-2-ylthio}-N-{4-[(E)-3-phenylacryloyl]phenyl}acetamide], which inhibition at 10 µM [1] is on record?
Answer: 0%

Question: What about the inhibition at 10 µM [2] of the same compound?
Answer: 5.86%

Question: What about the inhibition at 10 µM [3] of the same compound?
Answer: 8.17%

Question: And the inhibition at 10 µM [4]?
Answer: 0%

Question: What about the inhibition at 10 µM [5] of the same compound?
Answer: 0%

Question: What about the inhibition at 10 µM [6] of the same compound?
Answer: 1.64%

Question: And the inhibition at 10 µM [7]?
Answer: 0%

Question: And the inhibition at 10 µM [8]?
Answer: 0%

Question: What about the inhibition at 10 µM [9] of the same compound?
Answer: 8.78%

Question: What about the inhibition at 10 µM [10] of the same compound?
Answer: 0%

Question: What about the inhibition at 10 µM [11] of the same compound?
Answer: 0%

Question: And the inhibition at 10 µM [12]?
Answer: 0%

Question: What about the inhibition at 10 µM [13] of the same compound?
Answer: 0%

Question: What about the inhibition at 10 µM [14] of the same compound?
Answer: 0%

Question: What about the inhibition at 10 µM [15] of the same compound?
Answer: 0.55%

Question: And the inhibition at 10 µM [16]?
Answer: 0%

Question: And the inhibition at 10 µM [17]?
Answer: 16.4%

Question: What about the inhibition at 10 µM [18] of the same compound?
Answer: 0%

Question: And the inhibition at 10 µM [19]?
Answer: 0%

Question: What about the inhibition at 10 µM [20] of the same compound?
Answer: 16.4%

Question: What about the inhibition at 10 µM [21] of the same compound?
Answer: 0%

Question: And the inhibition at 10 µM [22]?
Answer: 0%

Question: What about the inhibition at 10 µM [23] of the same compound?
Answer: 6.84%

Question: And the inhibition at 10 µM [24]?
Answer: 11.5%

Question: And the melting point?
Answer: 185 to 186 °C

Question: What does the source list for `COc1ccc(-c2nc3cc(-c4nnc(SCC(=O)Nc5ccc(C(=O)/C=C/c6ccc(Cl)cc6)cc5)o4)ccc3[nH]2)cc1OC` [Compound 7q, 2-{5-[2-(3,4-Dimethoxyphenyl)-1 H-benzo[d]imidazol-5-yl]-1,3,4-oxadiazol-2-ylthio}-N-{4-[(E)-3-(4-chlorophenyl)acryloyl]phenyl}acetamide]?
Answer: inhibition at 10 µM [1]: 0%; inhibition at 10 µM [2]: 0%; inhibition at 10 µM [3]: 2.92%; inhibition at 10 µM [4]: 11.3%; inhibition at 10 µM [5]: 0%; inhibition at 10 µM [6]: 0%; inhibition at 10 µM [7]: 0%; inhibition at 10 µM [8]: 0%; inhibition at 10 µM [9]: 4.84%; inhibition at 10 µM [10]: 0%; inhibition at 10 µM [11]: 4.21%; inhibition at 10 µM [12]: 0%; inhibition at 10 µM [13]: 0%; inhibition at 10 µM [14]: 0%; inhibition at 10 µM [15]: 4.8%; inhibition at 10 µM [16]: 0%; inhibition at 10 µM [17]: 16.2%; inhibition at 10 µM [18]: 0%; inhibition at 10 µM [19]: 0%; inhibition at 10 µM [20]: 27%; inhibition at 10 µM [21]: 0%; inhibition at 10 µM [22]: 0%; inhibition at 10 µM [23]: 0%; inhibition at 10 µM [24]: 13%; melting point: 194 to 195 °C

Question: Which results are given for `COc1ccc(/C=C/C(=O)c2ccc(NC(=O)CSc3nnc(-c4ccc5[nH]c(-c6ccc(OC)c(OC)c6)nc5c4)o3)cc2)cc1` [Compound 7r, 2-{5-[2-(3,4-Dimethoxyphenyl)-1 H-benzo[d]imidazol-5-yl]-1,3,4-oxadiazol-2-ylthio}-N-{4-[(E)-3-(4-methoxyphenyl)acryloyl]phenyl}acetamide]?
Answer: inhibition at 10 µM [1]: 0%; inhibition at 10 µM [2]: 5.47%; inhibition at 10 µM [3]: 2.32%; inhibition at 10 µM [4]: 20.9%; inhibition at 10 µM [5]: 0%; inhibition at 10 µM [6]: 5.88%; inhibition at 10 µM [7]: 0%; inhibition at 10 µM [8]: 0%; inhibition at 10 µM [9]: 4.13%; inhibition at 10 µM [10]: 0%; inhibition at 10 µM [11]: 1.05%; inhibition at 10 µM [12]: 0%; inhibition at 10 µM [13]: 0%; inhibition at 10 µM [14]: 0%; inhibition at 10 µM [15]: 0%; inhibition at 10 µM [16]: 11.1%; inhibition at 10 µM [17]: 7.36%; inhibition at 10 µM [18]: 0%; inhibition at 10 µM [19]: 0%; inhibition at 10 µM [20]: 30.6%; inhibition at 10 µM [21]: 0%; inhibition at 10 µM [22]: 0%; inhibition at 10 µM [23]: 0%; inhibition at 10 µM [24]: 12.4%; melting point: 170 to 171 °C

Question: Which inhibition at 10 µM [1] does the source give for `COc1cc(-c2nc3cc(-c4nnc(SCC(=O)Nc5ccc(C(=O)/C=C/c6ccccc6)cc5)o4)ccc3[nH]2)cc(OC)c1OC` [Compound 7u, 2-{5-[2-(3,4,5-Trimethoxyphenyl)-1 H-benzo[d]imidazol-5-yl]-1,3,4-oxadiazol-2-ylthio}-N-{4-[(E)-3-phenylacryloyl]phenyl}acetamide] here?
Answer: 0%

Question: And the inhibition at 10 µM [2]?
Answer: 28.9%

Question: And the inhibition at 10 µM [3]?
Answer: 12.3%

Question: And the inhibition at 10 µM [4]?
Answer: 5.25%

Question: And the inhibition at 10 µM [5]?
Answer: 0%

Question: What about the inhibition at 10 µM [6] of the same compound?
Answer: 9.74%

Question: And the inhibition at 10 µM [7]?
Answer: 0%

Question: And the inhibition at 10 µM [8]?
Answer: 0%

Question: What about the inhibition at 10 µM [9] of the same compound?
Answer: 4.05%

Question: What about the inhibition at 10 µM [10] of the same compound?
Answer: 6.83%

Question: What about the inhibition at 10 µM [11] of the same compound?
Answer: 0%

Question: And the inhibition at 10 µM [12]?
Answer: 0%

Question: And the inhibition at 10 µM [13]?
Answer: 0%

Question: And the inhibition at 10 µM [14]?
Answer: 0%

Question: And the inhibition at 10 µM [15]?
Answer: 0%

Question: And the inhibition at 10 µM [16]?
Answer: 10.6%

Question: And the inhibition at 10 µM [17]?
Answer: 13.3%

Question: What about the inhibition at 10 µM [18] of the same compound?
Answer: 0%

Question: And the inhibition at 10 µM [19]?
Answer: 0%

Question: And the inhibition at 10 µM [20]?
Answer: 40.3%

Question: What about the inhibition at 10 µM [21] of the same compound?
Answer: 0%

Question: And the inhibition at 10 µM [22]?
Answer: 0%

Question: And the inhibition at 10 µM [23]?
Answer: 9.89%

Question: And the inhibition at 10 µM [24]?
Answer: 21%

Question: And the melting point?
Answer: 188 to 190 °C
